Source: EP0380084A2, “Method for the inhibition of cell-cell and cell substratum interactions by the blocking of carbohydrate-carbohydrate interactions” (The Biomembrane Institute, priority 1989, dated 1990)
“Also recorded” adds a separate entry of the source.

Legend:
[1] = tested on: mouse T cell lymphoma L5178 AA12 cell line (high expressor of Gg3) to mouse B16 melanoma cell line (high expressor of GM₃); test: Adhesion of 3H-labeled L5178 AA12 lymphoma cells to B16 melanoma cell layer; assay type: cell-based; settings: 10 mM EDTA, 5 mM sialyllactose, DH2 2 µg/ml, 2D4 5 µg/ml; 3H remaining after washing (Figure 2, panel c)
Description: Mouse B16 melanoma cells (which express a high level of GM₃) were purchased from American Type Culture Collection (Rockville, MD).
B16 cells (5x10⁴/ml), highly expressing GM₃, were grown on 24-well plates (Falcon, Oxnard, CA) for 24 hrs in DME. The majority of adherent cells were washed with serum-free medium. AA12 cells (Gg3 expressors) or AV27 cells (Gg3 non-expressors) were grown in DME containing 2% FCS, 1 g/l glucose, and 50 µCi ³H-GlcNH₂ for 24 hrs. The labeled AA12 (71,000 cpm/10⁵ cells) and AV27 (33,000 cpm/10⁵ cells) were then collected by centrifugation, suspended in DME containing 2% FCS and 1 g/l glucose, and the cell population adjusted to 6x10⁵/ml. This suspension (1 ml) was added to each well of a Falcon plate on which B16 melanoma cells were grown as adherent culture. The incubated plates were then washed 2x with serum-free fresh medium. L5178 lymphoma cells not adhering to B16 cells were washed out. The remaining cells in each plate were trypsinized, collected, and counted.
B16 melanoma cells grown in 24-well plates and L5178 lymphoma cells were treated respectively with DH2 solution (2 µg/ml) and 2D4 solution (5 µg/ml), left for 30 min at room temperature, washed with serum-­free fresh DME, and incubated with lymphoma cell suspension and melanoma cell layer for 5 hrs.

[2] = tested on: mouse T cell lymphoma L5178 AV27 cell line to B16 cells; settings: 10 mM EDTA; 3H remaining after washing (Figure 2, panel c)
Description: Mouse B16 melanoma cells (which express a high level of GM₃) were purchased from American Type Culture Collection (Rockville, MD). Expression of GM₃ by B16 cells was defined by MAb DH2 (Dohi et al., Cancer Res. 48:5680-5685, 1988). Mouse T cell lymphoma line L5178 AA12 (which express a high level of Gg3, defined by MAb 2D4; Young et al., J. Exp. Med. 150:1008-1019, 1979) was cloned from 1C1 (Young et al., J. Immunol. 126:1-6, 1981). […] All cells were grown in RPMI 1640 containing 10% FCS.
B16 cells (5x10⁴/ml), highly expressing GM₃, were grown on 24-well plates (Falcon, Oxnard, CA) for 24 hrs in DME. The majority of adherent cells were washed with serum-free medium. AA12 cells (Gg3 expressors) or AV27 cells (Gg3 non-expressors) were grown in DME containing 2% FCS, 1 g/l glucose, and 50 µCi ³H-GlcNH₂ for 24 hrs. The labeled AA12 (71,000 cpm/10⁵ cells) and AV27 (33,000 cpm/10⁵ cells) were then collected by centrifugation, suspended in DME containing 2% FCS and 1 g/l glucose, and the cell population adjusted to 6x10⁵/ml. This suspension (1 ml) was added to each well of a Falcon plate on which B16 melanoma cells were grown as adherent culture. The incubated plates were then washed 2x with serum-free fresh medium. L5178 lymphoma cells not adhering to B16 cells were washed out. The remaining cells in each plate were trypsinized, collected, and counted. […]

[3] = tested on: Le^x glycolipid; test: Interaction of Le^x liposomes with Le^x glycolipid coated on a plastic surface; assay type: binding
Description: A representative example of a carbohydrate-carbohydrate interaction is the recognition of Le^x(Galβ1 → 4[Fucα1 → 3]GlcNacβ1 → R) by Le^x per se. Le^x pentaosyl glycolipid (III³FucnLc₄) was prepared from human colonic adenocarcinoma.

[4] = tested on: mouse teratocarcinoma F9 cells; test: F9 cell aggregation assay (microscopy and Coulter Counter count of single cells); assay type: cell-based; settings: for self-aggregation of F9 cells: PBS with Ca2+ and Mg2+, 50 mM EDTA, 2 mM LFP II, 2 mM LFP III (Figure 1, panels a-d); for numbers of free (i.e., nonaggregated) cells: Coulter Counter, semiquantitative (Figure 1, panel e), 2 mM LFP II or LFP III
Description: More specifically, mouse teratocarcinoma F9 cells (Bernstine et al., Proc. Natl. Acad. Sci. USA 70:3899-3903, 1973) were grown on gelatin-coated plates in Dulbecco's modified Eagle's medium (DME) containing 4.5 g/l glucose and supplemented with 10% fetal calf serum (FCS) (v/v). The plates were prepared by incubating 0.01% gelatin in water for 30 min.
F9 cells grown to confluency on gelatin-coated plates were harvested using standard trypsin/EDTA solution and washed in DME containing 10% FCS. Next, the cells were carefully resuspended in a PBS solution (containing 0.9 mM Ca²⁺, 0.5 mM Mg²⁺ and 0.1 mM Mn²⁺) and supplemented with 0.1% FCS. The cell samples were mixed carefully before pipetting, and both manual counting and counting with a Coulter Counter (Model ZBI, Coulter Electronics Inc., Hialeah, Fla.) were performed. Adjustments of the aperture on the Coulter Counter were made in order to correlate with the manual counting of the single cells, excluding aggregated cells. For aggregation assays, cells were adjusted to a concentration of about 2.6 x 10⁷/ml. After 1 hr at 37°C, 50 µl aliquots were mixed with 50 µl of ethylenediaminetetraacetic acid (EDTA), LFP II, or LFP III solutions, and cells were incubated for an additional 15 min at 37°C. […] Before measurements on the Coulter Counter, the 100 µl volume sample was diluted to 10 ml and mixed carefully. In experiments were photomicrographs of cells were taken, approximately 0.8 x 10⁶ cells were placed in different PBS solutions (final volume 100 µl) in small Petri dishes. The cell suspension was then covered by mineral oil and incubated at 37°C for 30-60 min, and the process of cell aggregation was observed under the microscope.
The degree of F9 cell aggregation was semiquantitatively expressed by numbers of free (i.e., nonaggregated) cells (panel e), as determined by Coulter Counter with an appropriate aperture setting.

[5] = tested on: Gg3/GM₃ interaction; settings: antibody: pretreatment of the Gg3-coated solid phase
[6] = tested on: Le^x liposomes; test: Self-aggregation of Le^x liposomes; assay type: binding
Description: A representative example of a carbohydrate-carbohydrate interaction is the recognition of Le^x(Galβ1 → 4[Fucα1 → 3]GlcNacβ1 → R) by Le^x per se. Le^x pentaosyl glycolipid (III³FucnLc₄) was prepared from human colonic adenocarcinoma. Within the present invention, Le^x is shown to be the structure recognizing Le^x. […] Fourth, the diffusability of tritium-labeled LFP III (from the lower to the upper Boyden chamber through a semipermeable membrane) was inhibited by Le^x liposomes. In addition, the Le^x-Le^x interaction was highly dependent on bivalent cations (Ca²⁺, Mg²⁺) and was inhibited by EDTA.

Row | Compound | Adhesion of AA12 cells on B16 melanoma [1] | Adhesion of AV27 cells to B16 cells [2] | Le^x-Le^x interaction ([3]; dependent on bivalent cations (Ca2+, Mg2+)) | self-aggregation of F9 cells [4] | interaction of Gg3-coated solid phase with GM₃-containing liposomes [5] | self-aggregation of Le^x liposomes [6] | interaction of Le^x liposomes with immobilized Le^x glycolipid [3] | numbers of free (i.e., nonaggregated) cells [4]
1 | O=C(O)CN(CCN(CC(=O)O)CC(=O)O)CC(=O)O [EDTA, ethylenediaminetetraacetic acid] | greatly suppressed | greatly suppressed | inhibited | aggregation did not occur; also recorded: inhibited | inhibited | – | – | –
2 | CC(=O)NC1C(OC2C(O)C(CO)OC(OC3C(CO)OC(O)C(O)C3O)C2O)OC(CO)C(OC2OC(CO)C(O)C(O)C2O)C1OC1OC(C)C(O)C(O)C1O (stereo not drawn) [LFP III] | – | – | – | aggregation was inhibited | – | specifically inhibited | specifically inhibited | increased greatly
3 | CC(=O)N[C@H]1[C@H](O[C@H]2[C@@H](O)[C@@H](CO)O[C@@H](O[C@H]3[C@H](O)[C@@H](O)C(O)O[C@@H]3CO)[C@@H]2O)O[C@H](CO)[C@@H](O[C@@H]2O[C@@H](C)[C@@H](O)[C@@H](O)[C@@H]2O)[C@@H]1O[C@@H]1O[C@H](CO)[C@H](O)[C@H](O)[C@H]1O (stereo partly drawn) [LFP II] | – | – | – | aggregation of F9 cells; also recorded: not by LFP II | – | – | – | much less
4 | sialyllactose | markedly inhibited | – | – | – | – | – | – | –
